Data on two compounds can be found in paper PMC2847917 (The Journal of General Physiology, 2010).

Assay [1] concerns the target T1, P2X4 receptor (Mus musculus, UniProt Q9JJX6).
T1 sequence (Q9JJX6 1-388): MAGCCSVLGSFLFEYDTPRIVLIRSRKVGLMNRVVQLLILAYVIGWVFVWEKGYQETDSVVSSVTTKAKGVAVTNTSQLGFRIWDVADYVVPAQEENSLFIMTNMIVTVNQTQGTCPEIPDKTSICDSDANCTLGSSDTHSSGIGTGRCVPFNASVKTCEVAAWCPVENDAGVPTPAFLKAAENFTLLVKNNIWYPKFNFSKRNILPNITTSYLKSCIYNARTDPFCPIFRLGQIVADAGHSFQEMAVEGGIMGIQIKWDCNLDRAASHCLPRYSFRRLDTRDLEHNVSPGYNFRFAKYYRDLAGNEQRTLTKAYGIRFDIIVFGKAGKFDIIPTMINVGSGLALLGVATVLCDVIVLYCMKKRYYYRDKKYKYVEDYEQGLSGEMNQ
In words: cell-based.

Assay [2] concerns the target T1, P2X4 receptor. In words: whole-cell voltage clamp, agonist-evoked inward current. Type of assay: cell-based.

For orientation: EC50 means the concentration that produces a half-maximal response.

Take `Nc1ncnc2c1ncn2[C@@H]1O[C@H](COP(=O)(O)OP(=O)(O)OP(=O)(O)O)[C@@H](O)[C@H]1O` [ATP]: the EC50 on P2X4 receptor [1] amounted to 33 µM. As to `Nc1ncnc2c1ncn2[C@@H]1O[C@H](COP(=O)(O)CP(=O)(O)OP(=O)(O)O)[C@@H](O)[C@H]1O` [α,β-Methylene ATP], the “whole-cell voltage clamp, agonist-evoked inward current (partial agonist)” value on P2X4 receptor [2] is reported as “α,β-Methylene ATP was a partial agonist”.
